Experimental data taken from patent USRE50230E1, “Method of treatment of hypoxia inducible factor (HIF)-related conditions” (GRIFOLS WORLDWIDE OPERATIONS LIMITED, priority 2014, dated 2024).

Assays:
HIF1alpha protein = HIF1alpha protein levels by ELISA in SH-SY5Y cells; assay type: cell-based, human
Experimental: Human neuroblastoma SH-SY5Y cell line cells, cultured in serum free media were treated with plasma derived ApoTf and HoloTf (in both cases at a concentration of 1 mg/mL and 4 mg/mL) for 6 hours under normoxia (21% oxygen) and hypoxia conditions (1% oxygen). […] After 6 hrs intracellular proteins were harvested and tested for HIF1alpha protein levels by ELISA.
Experiment performed in example 1 was repeated but performing treatments for 24 hours and only under normoxic conditions. After 24 hrs intracellular proteins were harvested and tested for HIF1 alpha protein levels by ELISA.
After 6 hrs, intracellular proteins were harvested and tested for HIF1 alpha protein levels by ELISA.
To determine whether Apotransferrin increases the potency of the iron chelator, DFO, and the phd2 inhibitor IOX2; SH-SY5Y neuronal cells cultured in serum free media were treated with 4 mg/mL of the indicated proteins in the presence or absence of small molecule drug under normal oxygen levels. The data shown in FIG. 8A relates to treatment of cells with a combination of DFO or IOX2, at the indicated concentrations, plus 4 mg/mL protein. CoCl2 was used as an experimental positive control. The data shown in FIG. 8B relates to treatment of cells with a combination of 10 uM M30 plus/minus 4 mg/mL protein. The data shown in FIG. 8C relates to treatment of cells with a combination of 200 uM DFO plus/minus 4 mg/mL protein. After 6 hrs intracellular proteins were harvested and tested for HIF1 alpha protein levels by ELISA. Data are shown in pg/mL with standard deviation.

[1] = tested on: primary human hepatocytes; assay: Cell Titer Glow viability assay, primary human hepatocytes; assay type: cell-based; conditions: 4 mg/mL, 72 hours
Experimental: (§1) Given the anticipated safety profile of a human plasma protein, toxicity of transferrins (majority Apo, majority Holo and pd-transferrin) in NCI-H1650 and primary human hepatocyte cells was assessed. The human lung cell line, NCI-H1650, and primary human hepatocytes were treated for 72 hours with 4 mg/mL of majority ApoTf, majority HoloTf, or pd-transferrin. After 72 hours, cells were subjected to a Cell Titer Glow viability assay. Control cells, untreated cells, were set to a value of 100% viable. The average viability and standard deviations are shown in FIGS. 14A and 14B for each treatment condition.

VEGF = VEGF mRNA expression by qPCR in SH-SY5Y cells; assay type: cell-based, human
Experimental: (§2) The stabilization of, and increase in, HIF-1α protein typically leads to an up-regulation of HIF-related genes (increase in the transcription of genes targeted by HIF), i.e. genes that have HIF binding sites in their transcriptional regulatory elements. Two well characterized genes that are activated by HIF-1α protein are Glut1 receptor and VEGF. Therefore, in order to analyze mRNA expression changes in each of these HIF target genes SH-SY5Y cell line cells were cultured and treated with majority ApoTf or majority HoloTf at a concentration of 1 mg/mL and 4 mg/mL under normoxic (21% oxygen) or hypoxic (1% oxygen) conditions for 6 hours. As a negative controls, cells were treated with HSA (1 mg/mL or 4 mg/mL) or were left untreated. After 6 hrs, intracellular mRNA was harvested and tested for Glut1 and VEGF expression levels by qPCR. Expression results were calculated relative to the expression of the corresponding transcript seen in untreated cells. FIGS. 4A and 4B show the expression results obtained for Glut1 receptor and VEGF, respectively. Values in the figures are shown as Relative Gene Expression, with the target gene (Glut1 or VEGF) normalized for housekeeper (beta-actin) expression.
(§3) In addition, mRNA expression levels of Glut1 and VEGF in response to majority Apotransferrin and DFO or IOX2 combinations were determined. […] Where indicated, either 200 uM DFO or 1 uM IOX2 were co-treated with the HSA and majority Apotransferrin. After 6 hr treatments, intracellular mRNA was harvested and tested for Glut1 and VEGF expression levels by qPCR. Values are shown as Relative Gene Expression, with the target gene (Glut1 or VEGF) normalized for housekeeper (beta-actin) expression. Standard deviations are shown.

SH-SY5Y cells [2] = assay: Cell Titer Glow viability assay, SH-SY5Y cells; assay type: cell-based, human; conditions: 4 mg/mL, 72 hours
Experimental: Since it has been reported that HoloTf is toxic to cells in vivo and in vitro, toxicity of various compositions containing majority ApoTf, majority HoloTf or mixtures of ApoTf+HoloTf was tested in SH-SY5Y cells. SH-SY5Y cells were treated with the indicated concentrations of 4 mg/mL Tf (as indicated in FIG. 5A), M30 or DFO for 72 hours. After 72 hours, cells were subjected to a Cell Titer Glow viability assay. Control cells, untreated cells, were set to a value of 100% viable. The average viability and standard deviations are shown for each treatment condition.

Glut1 = Glut1 mRNA expression by qPCR in SH-SY5Y cells; assay type: cell-based, human
Experimental: as §2, §3

NCI-H1650 = assay: Cell Titer Glow viability assay, NCI-H1650; assay type: cell-based, human; conditions: 4 mg/mL, 72 hours
Experimental: as §1

[3] = Modified Bederson and General Behavioral scores in rats; assay type: in vivo, rat; conditions: rats intravenously treated
Experimental: In vivo neurological function was assessed by a modified Bederson score (Bederson et al., 1986b; Crumrine et al., 2011) using the following definitions:
Score 0: No apparent neurological deficits;
Score 1: Body torsion present;
Score 2: Body torsion with right side weakness;
Score 3: Body torsion, right side weakness with circling behavior; and
Score 4: Seizure Activity.
General behavioral scores of rats were developed by the CALS personnel for the purpose of monitoring recovery of animals following surgical procedures (standard CALS post-operative care). A numerical value was assigned to the predetermined behavioral observations.
Score 0: Behavior consistent with a normal naïve rat (i.e. no ipsilateral deficit);
Score 1: Bright/active/responsive; the rat spontaneously moves and explores his cage, responds to external stimuli, explores the top of the cage;
Score 2: Quiet/alert/responsive; reserved behavior but will respond to external stimulus, tends not to rear or explore the top of the cage;
Score 3: Depressed behavior: tends not to move unless prodded, quickly returns to a somnolent state, little to no interest in external stimuli;
Score 4: Unresponsive: remains in a prostrate position even when prodded; and Score 5: Seizure activity requiring euthanasia.

HIF1 alpha protein [4] = assay: HIF1 alpha protein levels by ELISA in RPTEC cells; assay type: cell-based, human; conditions: 4 mg/mL, 6 hrs, normal oxygen
Text: (§4) It is well-known in the art that many small molecules used for the treatment of conditions related or provoked by hypoxia are toxic and have numerous side effects, e.g. DFO. One of the most apparent side effects of said small molecules is kidney toxicity. Therefore, in order to assess whether transferrin and/or mixtures increase HIF1 alpha levels in primary kidney cells; human primary kidney cells, both primary human renal proximal tubule epithelial (RPTEC) or cortical epithelial cells (HRCE) were obtained. Primary human renal proximal tubule epithelial (RPTEC) or primary cortical epithelial (HRCE) cells cultured in serum free media were treated with 4 mg/mL majority Apo-transferrin, majority Holo-transferrin or various mixtures of each for 6 hrs under normal oxygen levels. After 6 hrs intracellular proteins were harvested and tested for HIF1 alpha protein levels by ELISA. FIGS. 10A and 10B reveal that HIF1 alpha levels are induced with transferrin composed of mixtures of Apo-transferrin and Holo-transferrin in RPTEC and HRCE, respectively.

SH-SY5Y cells [5] = assay: Protection from oligomerized Abeta 1-42 toxicity, ApoGlo caspase 3/7 activation assay; assay type: cell-based, human; conditions: for inherent toxicity: 4 mg/mL; for protection from Abeta induced toxicity (caspase 3/7 induction): 4 mg/mL for 24 hrs, then oligomerized Abeta1-42 for 72 hours
Text: Upregulation of the HIF pathway is known to play a protective role in a number of neurodegenerative diseases, including pathologies that result in destruction of nerve cells and neurons. Such neurodegenerative diseases include Alzheimer's disease, Parkinson's disease, Huntington's disease, and Amylotrophic Lateral Sclerosis. Since treatment of SH-SY5Y upregulates HIF, treatment of cells with Apo- or Holo-transferrin should provide a protective effect on cells subjected to substances known to induce neurodegeneration. FIG. 7 highlights data assessing whether majorities of Apo- and Holo-transferrin could protect SH-SY5Y cells from the toxic effects of the known neurodegenerative toxin oligomerized Abeta 1-42 peptide (FIG. 7). SH-SY5Y neuronal cells cultured in growth media were treated with 4 mg/mL Apo-transferrin or Holo-transferrin for 24 hrs under normal oxygen levels. After 24 hrs, cells were treated with oligomerized Abeta1-42 peptide for an additional 72 hours. Following treatment with oligomerized Abeta1-42, cells were subjected to a ApoGlo caspase 3/7 activation assay. Control cells, untreated cells, were set to a normalized value of 1. The average caspase induction, relative to control cells, and standard deviations are shown for each treatment condition.

HIF1 alpha protein [6] = assay: HIF1 alpha protein levels by ELISA in HRCE cells; assay type: cell-based, human; conditions: 4 mg/mL, 6 hrs, normal oxygen
Text: as §4

[7] = tested on: renal proximal tubule epithelial (RPTEC) cells; assay: Cell Titer Glow viability assay, RPTEC cells; assay type: cell-based, human; conditions: 48 hours
Experimental: (§5) Considering the anticipated safety profile of a human plasma protein, toxicity of DFO and transferrins (majority Apo, majority Holo and mixtures) was assessed in primary human kidney cells. The renal proximal tubule epithelial (RPTEC) or cortical epithelial (HRCE) cells were treated with the indicated concentrations of majority ApoTf or DFO for 48 hours (FIG. 11A); and RPTEC or HRCE cells were treated for 72 hrs with 4 mg/mL of majority ApoTf, majority HoloTf, mixtures of transferrin (FIG. 11B). After 48 or 72 hours, cells were subjected to a Cell Titer Glow viability assay. Control cells, untreated cells, were set to a value of 100% viable. The average viability and standard deviations are shown for each treatment condition.

[8] = tested on: cortical epithelial (HRCE) cells; assay: Cell Titer Glow viability assay, HRCE cells; assay type: cell-based, human; conditions: 48 hours
Experimental: as §5

[9] = MCAo (Middle Cerebral Artery occlusion) rat model of brain stroke, infarct volume; assay type: in vivo; conditions: 385 mg/kg, IV, transient MCAo rat
[10] = 1 mg/mL, 6 hours, hypoxia (1% oxygen), SH-SY5Y
[11] = 1 mg/mL, 6 hours, normoxia (21% oxygen), SH-SY5Y
[12] = 1 mg/mL, 24 hours, normoxic, SH-SY5Y
[13] = 4 mg/mL, 6 hours, hypoxia (1% oxygen), SH-SY5Y
[14] = 4 mg/mL, 6 hours, normoxia (21% oxygen), SH-SY5Y
[15] = 4 mg/mL, 24 hours, normoxic, SH-SY5Y
[16] = 6 hours, normoxic, SH-SY5Y (FIG. 3)
[17] = normoxic (21% oxygen), 6 hours, 1 mg/mL and 4 mg/mL
[18] = 4 mg/mL, co-treated with 200 uM DFO or 1 uM IOX2, 6 hr, normal oxygen
[19] = hypoxic (1% oxygen), 6 hours, 1 mg/mL and 4 mg/mL

Row | Compound | HIF-1α cellular protein levels (HIF1alpha protein; [10]) | HIF-1α cellular protein levels (HIF1alpha protein; [11]) | HIF-1α cellular protein levels (HIF1alpha protein; [12]) | HIF-1α cellular protein levels (HIF1alpha protein; [13]) | HIF-1α cellular protein levels (HIF1alpha protein; [14]) | HIF-1α cellular protein levels (HIF1alpha protein; [15]) | HIF-1α cellular protein levels (HIF1alpha protein; [16]) | toxicity (cell viability) [1] | toxicity (cell viability) (SH-SY5Y cells [2]) | toxicity (cell viability) (NCI-H1650) | modified Bederson and General Behavioral scores [3] | HIF1 alpha levels (HIF1 alpha protein [4]) | inherent toxicity (SH-SY5Y cells [5]) | protection from Abeta induced toxicity (caspase 3/7 induction) (SH-SY5Y cells [5]) | HIF1 alpha levels (HIF1 alpha protein [6]) | toxicity (cell viability) [7] | toxicity (cell viability) [8] | further results
1 | majority HoloTf: plasma derived transferrin composition, majority diferric holo-transferrin (30% ApoTf, 70% HoloTf) | significant increase | significant increase | tendency towards an increase | tendency towards an increase | significant increase | significant increase | increase | no toxicity | no toxicity or detrimental effects | no toxicity | no detrimental effects | Induce | lack of inherent toxicity | protect SH-SY5Y cells from Abeta induced toxicity | Induce |  |  | VEGF mRNA expression (VEGF; [17]): increased expression of only Glut1; Glut1 mRNA expression (Glut1; [17]): increased expression
2 | CC(=O)N(O)CCCCCNC(=O)CCC(=O)N(O)CCCCCNC(=O)CCC(=O)N(O)CCCCCN [DFO, deferoxamine, reference compound] |  |  |  |  |  |  |  |  |  |  |  |  |  |  |  | significant toxicity | significant toxicity | 
3 | majority ApoTf: plasma derived transferrin composition, majority iron-free apo-transferrin (98% ApoTf, 2% HoloTf) | significant increase | significant increase | increased | significant increase | significant increase | increased | increase | no toxicity | No toxic effects | no toxicity | neither compositions of majority ApoTf nor majority HoloTf showed significant differences | Induce | lack of inherent toxicity | protect SH-SY5Y cells from Abeta induced toxicity | Induce | none of the transferrin molecules showed any detrimental effects | none of the transferrin molecules showed any detrimental effects | effect on HIF1 alpha protein levels in combination with M30 (HIF1alpha protein; 4 mg/mL protein plus 10 uM M30, 6 hrs, normal oxygen, SH-SY5Y): synergistic effects; effect on HIF1 alpha protein levels in combination with DFO (HIF1alpha protein; 4 mg/mL protein plus 200 uM DFO, 6 hrs, normal oxygen, SH-SY5Y): synergistic effects; volume of the infarcted area vs saline control [9]: significant decrease; VEGF mRNA levels in combination with small molecule activators of the HIF pathway (VEGF; [18]): increase synergistically and additively; VEGF mRNA expression relative to HSA controls (VEGF; [19]): significantly increased; Glut1 mRNA levels in combination with small molecule activators of the HIF pathway (Glut1; [18]): increase synergistically and additively; Glut1 mRNA expression relative to HSA controls (Glut1; [19]): significantly increased
